Results from patent publication US20260364030A1, “NOVEL SELECTIVE INHIBITORS OF LYSYL OXIDASES” (Syntara Limited, priority 2022, published 2026).
pIC50: −log10 of the molar value.

Assays:
Bovine LOX = target: T1, Bovine LOX (Bos taurus, UniProt P33072); experiment: LOX inhibition, hydrogen peroxide Amplex Red oxidation assay; type: biochemical; conditions: 2 h incubation with enzyme at 37 °C
T1 sequence (P33072 170-418): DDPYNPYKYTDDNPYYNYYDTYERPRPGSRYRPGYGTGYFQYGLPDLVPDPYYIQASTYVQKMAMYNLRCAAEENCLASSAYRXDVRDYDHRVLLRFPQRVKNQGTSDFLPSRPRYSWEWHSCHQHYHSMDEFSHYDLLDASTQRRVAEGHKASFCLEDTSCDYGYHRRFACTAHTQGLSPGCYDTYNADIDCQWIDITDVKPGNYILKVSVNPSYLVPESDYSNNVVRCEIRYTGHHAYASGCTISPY
Method: (§1) LOX and LOXL protein family members can be acquired as recombinant active proteins from commercial sources, or extracted from animal tissues like bovine aorta, tendons, pig skin; or prepared from cell cultures. The inhibitory effects of the compounds of the present invention were tested against the given LOX or LOXL preparation using a method based on the detection of hydrogen peroxide with an Amplex Red oxidation assay [Zhou et al, 1997]. The assay was developed using either 384 or 96 well format. Briefly, in a standard black, clear bottom 384 well plate assay 25 µL of a dilution of any of the isoenzymes and orthologues in 1.2 M urea, 50 mM sodium borate buffer (pH 8.2) were added into each well in the presence of […] and 0.5 mM pargyline (to inhibit SSAO and MAO-B and MAO-A, respectively; not necessary if the enzyme is from a recombinant or purified form). […] of a reaction mixture containing twice the KM concentration of putrescine (Sigma Aldrich, e.g. 20 mM for LOX and LOXL1 or 10 mM for LOXL2 and 4 mM for LOXL3 and LOXL4), 120 µM Amplex Red (Thermo Fisher Scientific) and 1.5 U/mL horseradish peroxidase (Sigma Aldrich) prepared in 1.2 M urea, 50 mM sodium borate buffer (pH 8.2) were then added to the corresponding wells. The above volumes were doubled in the case of 96 wells plate. The fluorescence (RFU) was read every 2.5 min for 30 min at 37 °C, excitation 544 nm and emission 590 (Optima; BMG labtech). The slope/min of the kinetics for each well was calculated using MARS data analysis software (BMG labtech) and this value was used to deduce the IC50 value (Dotmatics). The ability of the inventive compounds to inhibit the amine oxidase activity of LOX and other family members is shown in Table 5.

LOXL2 = target: T2, LOXL2 (Homo sapiens, UniProt Q9Y4K0); experiment: LOXL2 inhibition, Amplex Red oxidation assay; type: biochemical; conditions: 2 h incubation with enzyme at 37 °C; read-out: Human LOXL2 Activity IC50
T2 sequence (Q9Y4K0 26-774): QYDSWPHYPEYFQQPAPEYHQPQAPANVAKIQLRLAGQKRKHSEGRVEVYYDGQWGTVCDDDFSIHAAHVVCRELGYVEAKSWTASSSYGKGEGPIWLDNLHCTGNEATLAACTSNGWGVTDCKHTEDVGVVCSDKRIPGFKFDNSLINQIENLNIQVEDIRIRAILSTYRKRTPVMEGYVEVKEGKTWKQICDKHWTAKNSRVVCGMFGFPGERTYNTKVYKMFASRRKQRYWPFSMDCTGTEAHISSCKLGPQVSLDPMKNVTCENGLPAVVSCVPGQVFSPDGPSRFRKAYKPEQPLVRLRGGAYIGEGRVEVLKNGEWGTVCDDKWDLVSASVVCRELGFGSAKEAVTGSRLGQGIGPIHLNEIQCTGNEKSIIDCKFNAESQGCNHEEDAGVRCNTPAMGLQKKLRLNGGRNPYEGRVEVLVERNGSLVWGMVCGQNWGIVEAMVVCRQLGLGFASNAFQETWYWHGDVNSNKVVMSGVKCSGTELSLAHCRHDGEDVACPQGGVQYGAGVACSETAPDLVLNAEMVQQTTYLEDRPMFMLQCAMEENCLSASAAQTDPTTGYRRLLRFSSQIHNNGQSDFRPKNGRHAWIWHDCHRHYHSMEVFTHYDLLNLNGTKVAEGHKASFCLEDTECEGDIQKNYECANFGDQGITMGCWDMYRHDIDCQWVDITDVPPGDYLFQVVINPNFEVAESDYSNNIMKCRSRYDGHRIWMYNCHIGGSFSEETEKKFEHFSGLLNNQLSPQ
Method: as §1

`N#Cc1cccc(S(=O)(=O)C/C(=C/F)CN)c1` [Compound 2, (E)-3-((2-(aminomethyl)-3-fluoroallyl)sulfonyl)benzonitrile] was tested, and the pIC50 (Bovine LOX) was > 5.70 and the pIC50 (LOXL2) was > 5.70.

With `Cc1ccccc1S(=O)(=O)C/C(=C/F)CN` [Compound 3, (E)-3-fluoro-2-((o-tolylsulfonyl)methyl)prop-2-en-1-amine] the pIC50 (Bovine LOX) was > 5.30 and the pIC50 (LOXL2) was > 5.70.

In the case of `Cc1ccc(S(=O)(=O)C/C(=C/F)CN)cc1` [Compound 4, (E)-3-fluoro-2-(tosylmethyl)prop-2-en-1-amine], the pIC50 (Bovine LOX) was > 5.30 and the pIC50 (LOXL2) was > 5.70.

With `NC/C(=C\F)CS(=O)(=O)c1cccc(F)c1` [Compound 5, (E)-3-fluoro-2-(((3-fluorophenyl)sulfonyl)methyl)prop-2-en-1-amine] the pIC50 (Bovine LOX) was > 5.70 and the pIC50 (LOXL2) was > 5.70.

With `NC/C(=C\F)CS(=O)(=O)c1ccccc1Cl` [Compound 6, (E)-2-(((2-chlorophenyl)sulfonyl)methyl)-3-fluoroprop-2-en-1-amine] the pIC50 (Bovine LOX) was > 5.30 and the pIC50 (LOXL2) was > 5.30.

In the case of `NC/C(=C\F)CS(=O)(=O)c1cccc2cccnc12` [Compound 7, (E)-3-fluoro-2-((quinolin-8-ylsulfonyl)methyl)prop-2-en-1-amine], the pIC50 (Bovine LOX) was > 5.00 and the pIC50 (LOXL2) was > 5.70.

`Cc1ccc(S(=O)(=O)C/C(=C/F)CN)cc1Cl` [Compound 8, (E)-2-(((3-chloro-4-methylphenyl)sulfonyl)methyl)-3-fluoroprop-2-en-1-amine] was tested, and the pIC50 (Bovine LOX) was > 5.70 and the pIC50 (LOXL2) was > 5.70.

In the case of `Cc1ccc(S(=O)(=O)C/C(=C/F)CN)cc1C` [Compound 9, (E)-2-(((3,4-dimethylphenyl)sulfonyl)methyl)-3-fluoroprop-2-en-1-amine], the pIC50 (Bovine LOX) was > 5.70 and the pIC50 (LOXL2) was > 5.70.

In the case of `NC/C(=C\F)CS(=O)(=O)c1cccc(C(F)(F)F)c1` [Compound 10, (E)-3-fluoro-2-(((3-(trifluoromethyl)phenyl)sulfonyl)methyl)prop-2-en-1-amine], the pIC50 (Bovine LOX) was > 5.70 and the pIC50 (LOXL2) was > 5.70.

In the case of `CC(C)c1cccc(S(=O)(=O)C/C(=C/F)CN)c1` [Compound 11, (E)-3-fluoro-2-(((3-isopropylphenyl)sulfonyl)methyl)prop-2-en-1-amine], the pIC50 (Bovine LOX) was > 5.70 and the pIC50 (LOXL2) was > 5.70.

In the case of `N#Cc1ccccc1S(=O)(=O)C/C(=C/F)CN` [Compound 12, (E)-2-((2-(aminomethyl)-3-fluoroallyl)sulfonyl)benzonitrile], the pIC50 (Bovine LOX) was > 5.30 and the pIC50 (LOXL2) was > 5.30.

`NC/C(=C\F)CS(=O)(=O)c1cccc([N+](=O)[O-])c1` [Compound 13, (E)-3-fluoro-2-(((3-nitrophenyl)sulfonyl)methyl)prop-2-en-1-amine] was tested, and the pIC50 (Bovine LOX) was > 5.70 and the pIC50 (LOXL2) was > 5.70.

In the case of `NC/C(=C\F)CS(=O)(=O)c1cccc(S(=O)(=O)c2ccccc2)c1` [Compound 14, (E)-3-fluoro-2-(((3-(phenylsulfonyl)phenyl)sulfonyl)methyl)prop-2-en-1-amine], the pIC50 (Bovine LOX) was > 5.70 and the pIC50 (LOXL2) was > 5.70.

For `NC/C(=C\F)CS(=O)(=O)c1cccc(Br)c1` [Compound 15, (E)-2-(((3-bromophenyl)sulfonyl)methyl)-3-fluoroprop-2-en-1-amine], the pIC50 (Bovine LOX) was > 5.70 and the pIC50 (LOXL2) was > 5.70.

In the case of `NC/C(=C\F)CS(=O)(=O)c1cccc(-c2nccs2)c1` [Compound 16, (E)-3-fluoro-2-(((3-(thiazol-2-yl)phenyl)sulfonyl)methyl)prop-2-en-1-amine], the pIC50 (Bovine LOX) was > 5.70 and the pIC50 (LOXL2) was > 5.70.

In the case of `Cc1ncc(-c2cccc(S(=O)(=O)C/C(=C/F)CN)c2)s1` [Compound 17, (E)-3-fluoro-2-(((3-(2-methylthiazol-5-yl)phenyl)sulfonyl)methyl)prop-2-en-1-amine], the pIC50 (Bovine LOX) was > 5.70 and the pIC50 (LOXL2) was > 5.70.

With `Cc1ccn(-c2cccc(S(=O)(=O)C/C(=C/F)CN)c2)n1` [Compound 18, (E)-3-fluoro-2-(((3-(3-methyl-1H-pyrazol-1-yl)phenyl)sulfonyl)methyl)prop-2-en-1-amine] the pIC50 (Bovine LOX) was > 5.70 and the pIC50 (LOXL2) was > 5.70.

With `NC/C(=C\F)CS(=O)(=O)c1cccc(Cl)c1` [Compound 19, (E)-2-(((3-chlorophenyl)sulfonyl)methyl)-3-fluoroprop-2-en-1-amine] the pIC50 (Bovine LOX) was > 5.70 and the pIC50 (LOXL2) was > 5.70.

For `Cc1cccc(S(=O)(=O)C/C(=C/F)CN)c1` [Compound 20, (E)-3-fluoro-2-((m-tolylsulfonyl)methyl)prop-2-en-1-amine], the pIC50 (Bovine LOX) was > 5.70 and the pIC50 (LOXL2) was > 5.70.

For `CS(=O)(=O)c1ccc(S(=O)(=O)C/C(=C/F)CN)cc1` [Compound 21, (E)-3-fluoro-2-(((4-(methylsulfonyl)phenyl)sulfonyl)methyl)prop-2-en-1-amine], the pIC50 (Bovine LOX) was > 5.70 and the pIC50 (LOXL2) was > 5.70.

In the case of `NC/C(=C\F)CS(=O)(=O)c1ccc2ccccc2c1` [Compound 22, (E)-3-fluoro-2-((naphthalen-2-ylsulfonyl)methyl)prop-2-en-1-amine], the pIC50 (Bovine LOX) was > 5.70 and the pIC50 (LOXL2) was > 5.70.

In the case of `CS(=O)(=O)c1cccc(S(=O)(=O)C/C(=C/F)CN)c1` [Compound 23, (E)-3-fluoro-2-(((3-(methylsulfonyl)phenyl)sulfonyl)methyl)prop-2-en-1-amine], the pIC50 (Bovine LOX) was > 5.70 and the pIC50 (LOXL2) was > 5.70.

`COc1cccc(S(=O)(=O)C/C(=C/F)CN)c1` [Compound 24, (E)-3-fluoro-2-(((3-methoxyphenyl)sulfonyl)methyl)prop-2-en-1-amine] was tested, and the pIC50 (Bovine LOX) was > 5.70 and the pIC50 (LOXL2) was > 5.70.

In the case of `NC/C(=C\F)CS(=O)(=O)c1ccc2c(c1)OCCO2` [Compound 25, (E)-2-(((2,3-dihydrobenzo[b][1,4]dioxin-6-yl)sulfonyl)methyl)-3-fluoroprop-2-en-1-amine], the pIC50 (Bovine LOX) was > 5.70 and the pIC50 (LOXL2) was > 5.70.

For `NC/C(=C\F)CS(=O)(=O)c1cccc(C(=O)O)c1` [Compound 26, (E)-3-((2-(aminomethyl)-3-fluoroallyl)sulfonyl)benzoic acid], the pIC50 (Bovine LOX) was > 5.00 and the pIC50 (LOXL2) was > 5.30.

With `NC/C(=C\F)CS(=O)(=O)c1cccc(C(N)=O)c1` [Compound 27, (E)-3-((2-(aminomethyl)-3-fluoroallyl)sulfonyl)benzamide] the pIC50 (Bovine LOX) was > 5.70 and the pIC50 (LOXL2) was > 5.70.

In the case of `N#Cc1ccc(S(=O)(=O)C/C(=C/F)CN)cc1` [Compound 28, (E)-4-((2-(aminomethyl)-3-fluoroallyl)sulfonyl)benzonitrile], the pIC50 (Bovine LOX) was > 5.30 and the pIC50 (LOXL2) was > 5.70.

`Cc1ccc(S(=O)(=O)C/C(=C/F)CN)cc1C#N` [Compound 29, (E)-5-((2-(aminomethyl)-3-fluoroallyl)sulfonyl)-2-methylbenzonitrile] was tested, and the pIC50 (Bovine LOX) was > 5.70 and the pIC50 (LOXL2) was > 5.70.

`[2H]c1c([2H])c([2H])c(S(=O)(=O)C/C(=C/F)CN)c([2H])c1[2H]` [Compound 30, (E)-3-fluoro-2-(((phenyl-d5)sulfonyl)methyl)prop-2-en-1-amine] was tested, and the pIC50 (Bovine LOX) was > 5.30 and the pIC50 (LOXL2) was > 5.30.

For `NC/C(=C\F)CS(=O)(=O)c1ccc(C(=O)O)cc1` [Compound 31, (E)-4-((2-(aminomethyl)-3-fluoroallyl)sulfonyl)benzoic acid], the pIC50 (Bovine LOX) was > 5.00 and the pIC50 (LOXL2) was > 5.00.

With `NC/C(=C\F)CS(=O)(=O)c1cc(Cl)ccc1Cl` [Compound 32, (E)-2-(((2,5-dichlorophenyl)sulfonyl)methyl)-3-fluoroprop-2-en-1-amine] the pIC50 (Bovine LOX) was > 5.70 and the pIC50 (LOXL2) was > 5.70.

With `NC/C(=C\F)CS(=O)(=O)c1cccc(-n2nccn2)c1` [Compound 34, (E)-2-(((3-(2H-1,2,3-triazol-2-yl)phenyl)sulfonyl)methyl)-3-fluoroprop-2-en-1-amine] the pIC50 (Bovine LOX) was > 5.30.
